“Also recorded” adds a separate entry of the source. Like-named read-outs stand apart in the source and are kept apart here.

One data set deals with T1, LRRK2 WT (Homo sapiens, UniProt Q5S007).
T1 construct: comprises residue 970 to 2527 of the full length human wild-type LRRK2 kinase; purchased Invitrogen (Life Technologies Corporation)
Briefly: LRRK2 wild-type kinase activity assay (LanthaScreen TR-FRET). Conditions: 1 nM LRRK2 WT, 1.3 mM ATP, 3.5 h at 30° C.; n≥2 tests. Type of data set: biochemical. The gist of the method: (§1)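 TR-FRET measured phosphorylation of fluorescein-ERM LRRKtide by human LRRK2 residues 970–2527, wild-type or G2019S, detected with a terbium anti-phospho-LRRKtide antibody. The 520/495 nm ratio was normalized to uninhibited and inhibitor controls. IC50 came from a Hill fit, log-averaged over independent experiments.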
(TR-FRET usually uses a lanthanide donor and a delayed reading to cut background.)

The next data set deals with T2, LRRK2 G2019S (Homo sapiens, UniProt Q5S007, G2019S).
T2 construct: purchased Invitrogen (Life Technologies Corporation)
As to the kind of experiment: LRRK2 G2019S kinase activity assay (LanthaScreen TR-FRET). The following applies: 250 pM LRRK2 G2019S, 1.3 mM ATP, 3 h at 30° C.; n≥2 tests. Type of data set: biochemical. The gist of the method:
as §1

The test system of data set [1] is pooled donor, cryopreserved hepatocytes. As to the kind of experiment: Hepatocyte intrinsic clearance assay. The following applies: 0.1 μM, 2 h at 37° C., 1×10^6 hepatocytes/mL; * measured on 3 separate occasions, ** on a single occasion. Type of data set: in vitro ADME, human. As for the experimental part: (§2) Test compounds (final concentration 0.1 μM, 0.05% organic) were incubated for 2 h at 37° C., with shaking, in supplemented Leibovitz L-15 media (pH7.4) containing commercially sourced, pooled donor, cryopreserved hepatocytes (final concentration 1×10^6 hepatocytes/m L). The CLint reactions (350 μL) were initiated by addition of test compound. Aliquots (25 μL) were taken at 1, 5, 10, 15, 30, 60, 90 and 120 minutes and then protein crashed with ice-cold acetonitrile containing internal standard (150 μL) then centrifuged (1960 g for 20 minutes at 4° C.). Supernatant was diluted (1:4) with deionized water then analyzed by liquid chromatography (LC)-tandem mass spectrometry (MS/MS). The intrinsic clearances (CLint) were calculated from the slope (k) of the linear regressions of percentages of compound remaining in incubation against incubation time, according to equations 2 and 3.

A further data set in a line: GSH adduct screening. Type of data set: in vitro ADME, human. Conditions: 1 μM, 3 h at 37° C., HLM 0.5 mg/mL, NADPH, with and without GSH. As for the experimental part:
Test compounds (final concentration 1 μM, 0.25% organic) were incubated for 3 h at 37° C. in commercially sourced, pooled donor, human liver microsomes (HLM, final concentration 0.5 mg/mL) with and without addition of glutathione (GSH; final concentration […]). The metabolic reaction was initiated by addition of microsomal solution to the mixture of cofactor NADPH (final concentration 1 mM), test compound and GSH. After 3 h of incubation in a water bath at 37° C., the reaction was stopped by addition of 0.2% formic acid in acetonitrile, followed by mixing and centrifugation (16000 g for 5 minutes). Supernatant was diluted (1:1) with HPLC water then analyzed by liquid chromatography (LC)-quadrupole time-of-flight mass spectrometry (QTOF-MS). Accurate mass MS and MS/MS spectra from samples with GSH and without GSH, respectively, were compared to identify detectable GSH and/or cysteine related adducts.

Data set [2] can be described thus: Hepatocyte intrinsic clearance assay. Conditions: human, pooled donor, cryopreserved hepatocytes, pH 7.4, 0.1 μM, 2 h at 37° C., 1×10^6 hepatocytes/mL; * measured on 3 separate occasions, ** on a single occasion. Type of data set: in vitro ADME, human. As for the experimental part: as §2
A short description of data set [3]: Free fraction in plasma (equilibrium dialysis). Type of data set: in vitro ADME, male Sprague-Dawley rat. Conditions: rat plasma, 1 μM, 5 h at 37° C. As for the experimental part: The free fractions in male Sprague-Dawley rat or female Gottingen minipig plasma (fuplasma) and rat brain homogenate (fubrain) were determined by equilibrium dialysis using 96-well HTD-dialysis plates with dialysis membranes (molecular weight cut off 12-14 KDa). One side of the HTD-dialysis plate was loaded with matrix (plasma or brain homogenate) and the other side with buffer (100 mM sodium phosphate buffer, pH 7.4). Test compounds were dissolved in DMSO then spiked (5 μL of 0.2 mM) into blank (995 μL) plasma or diluted brain homogenate (1:4 ratio in phosphate buffer) giving a final nominal concentration 1 μM (≤0.5% DMSO). The matrices were loaded into respective chambers and equilibrated against phosphate buffer for 5 h at 37° C. (in a humidified air incubator with 5% CO2 with shaking). Samples from both chambers (buffer and plasma or brain homogenate) were aliquoted to fresh 96-well polypropylene plates then matrix matched using an equal volume of opposite blank matrix before extraction with cold solvent (3 volumes acetonitrile) containing an appropriate bioanalytical internal standard. After centrifugation (20 min, 3200 g, 4° C.) the supernatants were diluted with appropriate volumes of water and compound concentrations were quantified by LC/MS-MS against matrix matched calibration standards. The fuplasma and fubrain were calculated as a percent free according to equation 4 below.
Where [F] is the analyte concentration on the buffer (receiver) side of the membrane; [T] is the analyte concentration on the plasma or brain (donor) side of the membrane; [TO] is the analyte concentration in the plasma or brain sample at time zero; D is matrix dilution factor which is determined as 4 for brain matrix and 1 for plasma matrix in these assays.
Background: In equilibrium dialysis free small molecules cross a membrane that holds back macromolecules.

Data set [4] is described as follows: Rat B/P (brain disposition). Type of data set: in vivo, male Sprague-Dawley rats. Conditions: male, Sprague-Dawley, oral gavage 10 mg/kg; for concentration at 1 h / Kp uu at 1 h / Kp at 1 h: time point 1.0 h; for concentration at 1 h / Kp at 1 h / concentration at 0.5 h / Kp at 0.5 h: mean ± stdev; for Kp uu at 1 h / Kp at 1 h / Kp at 0.5 h / Kp uu at 0.5 h: brain/plasma; for Kp uu at 1 h / Kp uu at 0.5 h: fubrain from brain homogenate; for Kp at 1 h / Kp at 0.5 h: n = 3; for concentration at 0.5 h / Kp at 0.5 h / Kp uu at 0.5 h: time point 0.5 h. As for the experimental part:
Brain disposition was evaluated for each compound in male Sprague-Dawley rats (n=3, standard body weight). […] Isolated plasma and brain homogenates were extracted by standard protein precipitation in acetonitrile, containing internal standard, followed by LC-MS/MS analysis using an optimized analytical method. Concentrations of test compound in plasma and brain were quantified against matrix matched calibration standards. The total plasma and brain concentration data are presented in Table 7 alongside the calculated brain Kp (total brain concentration:total plasma concentration ratio).

Setting [5] is: brain, n = 3, read-out: Total brain concentration.
Setting [6] is: plasma, n = 3, read-out: Total plasma concentration.

T2 sequence (Q5S007 970-2527 G2019S): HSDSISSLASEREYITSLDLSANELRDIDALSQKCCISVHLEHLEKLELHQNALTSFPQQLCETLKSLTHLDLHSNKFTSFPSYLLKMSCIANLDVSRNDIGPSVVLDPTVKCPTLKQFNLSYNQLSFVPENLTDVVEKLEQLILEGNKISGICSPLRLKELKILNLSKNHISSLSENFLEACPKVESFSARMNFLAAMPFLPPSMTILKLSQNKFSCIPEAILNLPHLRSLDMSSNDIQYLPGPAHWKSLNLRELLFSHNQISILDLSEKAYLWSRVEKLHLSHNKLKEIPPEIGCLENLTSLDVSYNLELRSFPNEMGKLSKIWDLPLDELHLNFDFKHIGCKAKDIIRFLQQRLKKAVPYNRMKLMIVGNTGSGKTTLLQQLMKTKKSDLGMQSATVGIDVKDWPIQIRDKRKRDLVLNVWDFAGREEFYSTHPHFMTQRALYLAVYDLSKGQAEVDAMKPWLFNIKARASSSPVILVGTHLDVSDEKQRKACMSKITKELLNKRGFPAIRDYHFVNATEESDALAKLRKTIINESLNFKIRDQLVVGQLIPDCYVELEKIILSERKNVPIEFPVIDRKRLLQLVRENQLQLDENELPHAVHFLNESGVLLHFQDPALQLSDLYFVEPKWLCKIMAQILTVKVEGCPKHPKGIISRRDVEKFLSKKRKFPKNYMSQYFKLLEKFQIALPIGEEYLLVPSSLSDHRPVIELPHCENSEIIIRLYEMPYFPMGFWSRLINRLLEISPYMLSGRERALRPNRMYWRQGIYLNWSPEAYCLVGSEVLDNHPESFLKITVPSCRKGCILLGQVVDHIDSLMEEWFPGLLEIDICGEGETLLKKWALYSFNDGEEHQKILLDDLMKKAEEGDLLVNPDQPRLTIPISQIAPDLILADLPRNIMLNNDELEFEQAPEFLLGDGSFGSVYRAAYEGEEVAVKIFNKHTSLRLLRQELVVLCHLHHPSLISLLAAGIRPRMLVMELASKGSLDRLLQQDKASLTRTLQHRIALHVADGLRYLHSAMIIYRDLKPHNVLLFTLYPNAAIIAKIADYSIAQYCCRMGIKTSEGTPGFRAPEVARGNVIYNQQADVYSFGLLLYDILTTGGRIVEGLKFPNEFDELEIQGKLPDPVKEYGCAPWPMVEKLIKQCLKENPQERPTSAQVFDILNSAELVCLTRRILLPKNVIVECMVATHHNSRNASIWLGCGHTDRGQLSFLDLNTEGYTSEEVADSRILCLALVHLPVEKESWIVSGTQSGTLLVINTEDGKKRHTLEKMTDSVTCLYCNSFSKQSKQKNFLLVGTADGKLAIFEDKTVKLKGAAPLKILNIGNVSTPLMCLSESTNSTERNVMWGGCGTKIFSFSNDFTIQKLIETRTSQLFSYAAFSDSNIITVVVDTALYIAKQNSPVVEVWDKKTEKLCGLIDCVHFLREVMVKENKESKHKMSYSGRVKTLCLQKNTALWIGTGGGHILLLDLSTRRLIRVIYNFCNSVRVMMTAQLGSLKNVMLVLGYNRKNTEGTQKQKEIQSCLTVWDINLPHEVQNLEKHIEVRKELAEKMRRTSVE
T1 sequence (Q5S007 970-2527): as the sequence (Q5S007 970-2527 G2019S) above, with S1050G counted along it

Turning to `Cc1c2c(nn1[C@H]1CCCOC1)OCCCn1nc(Cl)c3cnc(nc31)N2` (single isomer, unassigned) [Example 3, (R) or (S)-8-Chloro-3-methyl-2-(tetrahydro-2H-pyran-3-yl)-2,4,12,13-tetrahydro-11H-5,7-(azenometheno)dipyrazolo[3,4-b:5′,1′-g][1]oxa[4,6,8]triazacycloundecine], the results for the IC50 on LRRK2 WT and on LRRK2 G2019S were 9.2 nM and 2.2 nM, respectively. Besides, the “CLint” value in data set [1] was 5.5 mL/min/kg.
Turning to `Cc1c2c(nn1[C@@H]1CCO[C@H](C)C1)OCCCn1nc(Cl)c3cnc(nc31)N2` (single isomer, unassigned) [Example 18], the “Adduct detected in GSH supplemented HLMs” value in “GSH adduct screening” is “+GSH”. Moreover, the half-maximal inhibitory concentration (IC50) was determined as 11 nM at LRRK2 WT and 3.6 nM on LRRK2 G2019S. In data set [2], this molecule came in with a CLint scaled at 0.1 μM of under 4 mL/min/kg. For the same molecule, the “fuplasma (% free)” value in data set [3] came out at 25.0 % free. For the same molecule, the figures for the concentration at 1 h in data set [4] (setting [5]) and in data set [4] (setting [6]) were 897 ± 292 ng/g and 636 ± 265 ng/mL, respectively. The molecule also had a Kp uu at 1 h in data set [4] of 0.35 ± 0.05. The same molecule yielded a Kp at 1 h in data set [4] of 1.47 ± 0.22.
For `[2H]C([2H])([2H])c1c2c(nn1[C@H]1CCO[C@@H](C)C1)OCCCn1nc(Cl)c3cnc(nc31)N2` (single isomer, unassigned) [Example 51, (+)-8-Chloro-3-(methyl-d3)-2-((2R,4R) or (2S,4S)-2-methyltetrahydro-2H-pyran-4-yl)-2,4,12,13-tetrahydro-11H-5,7-(azenometheno)dipyrazolo[3,4-b:5′,1′-g][1]oxa[4,6,8]triazacycloundecine], in the data set “GSH adduct screening”, the “Adduct detected in GSH supplemented HLMs” value was “+GSH”. Besides, the IC50 on LRRK2 WT was determined as 9 nM; on LRRK2 G2019S, 5.3 nM. Also, in data set [2], the intrinsic metabolic clearance (CLint scaled) at 0.1 μM was under 4 mL/min/kg.
Turning to `Cc1c2c(nn1C1CCOCC1)OCCCn1nc(Cl)c3cnc(nc31)N2` [Example 2, 8-Chloro-3-methyl-2-(tetrahydro-2H-pyran-4-yl)-2,4,12,13-tetrahydro-11H-5,7-(azenometheno)dipyrazolo[3,4-b:5′,1′-g][1]oxa[4,6,8]triazacycloundecine], the “Adduct detected in GSH supplemented HLMs” value in “GSH adduct screening” is “+GSH”. The same molecule had a CLint scaled at 0.1 μM in data set [2] of 14.2 mL/min/kg.
With `CCc1c2c(nn1C1CCOCC1)OCCCn1nc(Cl)c3cnc(nc31)N2` [Example 17, 8-Chloro-3-ethyl-2-(tetrahydro-2H-pyran-4-yl)-2,4,12,13-tetrahydro-11H-5,7-(azenometheno)dipyrazolo[3,4-b:5′,1′-g][1]oxa[4,6,8]triazacycloundecine], the “Adduct detected in GSH supplemented HLMs” value in the data set “GSH adduct screening” is “did not form GSH adduct; also recorded: None detected”. For the same molecule, the IC50 at LRRK2 WT worked out at 15 nM; at LRRK2 G2019S it was 5.8 nM. Also, the CLint scaled at 0.1 μM in data set [2] was 5.67 mL/min/kg. In addition, the “fuplasma (% free)” value in data set [3] is on record as 27.5 % free. In addition, the concentration at 1 h in data set [4] (setting [5]) stood at 1150 ± 59 ng/g; in data set [4] (setting [6]), 653 ± 52 ng/mL. The partition ratio (Kp) at 1 h in data set [4] came out at 1.76 ± 0.08. The Kp uu at 1 h in data set [4] (po, 10 mg/kg) stood at 0.59 ± 0.03.
For `CO[C@H]1CC[C@H](n2nc3c(c2C)Nc2ncc4c(Cl)nn(c4n2)CCCO3)CC1` [Example 37, 8-Chloro-2-((1r,4r)-4-methoxycyclohexyl)-3-methyl-2,4,12,13-tetrahydro-11H-5,7-(azenometheno)dipyrazolo[3,4-b:5′,1′-g][1]oxa[4,6,8]triazacycloundecine], the “Adduct detected in GSH supplemented HLMs” value in “GSH adduct screening” is “+GSH”. The 50% inhibitory concentration (IC50) at LRRK2 WT came out at 8.5 nM; at LRRK2 G2019S, 3.7 nM. Moreover, in data set [2], the CLint scaled at 0.1 μM was under 4 mL/min/kg. Besides, the “fuplasma (% free)” value in data set [3] turned out to be 18.2 % free. Moreover, the concentration at 0.5 h in data set [4] (setting [5]) turned out to be 683 ± 139 ng/g; in data set [4] (setting [6]), 391 ± 96 ng/mL. Besides, the Kp at 0.5 h in data set [4] came to 1.87 ± 0.76. In data set [4] (po, 10 mg/kg), this molecule yielded a Kp uu at 0.5 h of 0.47 ± 0.19.
Take `Cc1c2c(nn1[C@H]1C[C@@H](C)O[C@@H](C)C1)OCCCn1nc(Cl)c3cnc(nc31)N2` [Example 41, 8-chloro-2-((2R,4r,6S)-2,6-dimethyltetrahydro-2H-pyran-4-yl)-3-methyl-2,4,12,13-tetrahydro-11H-5,7-(azenometheno)dipyrazolo[3,4-b:5′,1′-g][1]oxa[4,6,8]triazacycloundecine]: the IC50 on LRRK2 WT stood at 17 nM; on LRRK2 G2019S, 6.4 nM. The CLint scaled at 0.1 μM in data set [2] was 5.67 mL/min/kg. Besides, in data set [3], the “fuplasma (% free)” value was determined as 25.2 % free. Also, the concentration at 0.5 h stood at 620 ± 30 ng/g in data set [4] (setting [5]) and 250 ± 24 ng/mL in data set [4] (setting [6]). For the same molecule, in data set [4], the Kp at 0.5 h came out at 2.5 ± 0.31.
For the molecule `Cc1c2c(nn1[C@@H]1C[C@H]3CC[C@@H](C1)O3)OCCCn1nc(Cl)c3cnc(nc31)N2` [Example 44, 2-((1R,3s,5S)-8-Oxabicyclo[3.2.1]octan-3-yl)-8-chloro-3-methyl-2,4,12,13-tetrahydro-11H-5,7-(azenometheno)dipyrazolo[3,4-b:5′,1′-g][1]oxa[4,6,8]triazacycloundecine], the concentration for half-maximal inhibition (IC50) at LRRK2 WT was 13 nM; on LRRK2 G2019S, 4.3 nM. The CLint scaled at 0.1 μM in data set [2] was under 4 mL/min/kg. Further, the “fuplasma (% free)” value in data set [3] is 25.5 % free. Moreover, the concentration at 0.5 h in data set [4] (setting [5]) stood at 731 ± 223 ng/g; in data set [4] (setting [6]) it was 468 ± 117 ng/mL. This molecule also registered a Kp uu at 0.5 h in data set [4] of 0.3 ± 0.04. In data set [4], the Kp at 0.5 h turned out to be 1.56 ± 0.23.
Consider `[2H]C([2H])([2H])c1c2c(nn1[C@H]1CC[C@H](OC)CC1)OCCCn1nc(Cl)c3cnc(nc31)N2` [Example 50], for which the “Adduct detected in GSH supplemented HLMs” value in the data set “GSH adduct screening” is recorded as “did not form GSH adduct; also recorded: None detected”. Also, the results for the IC50 on LRRK2 WT and at LRRK2 G2019S were 10 nM and 5.3 nM, respectively. Further, the CLint scaled at 0.1 μM in data set [2] is under 4 mL/min/kg.

A word on the IC50: it is the concentration at which inhibition is half-maximal. What is called CLint scaled is a measure of how fast metabolising enzymes remove a compound, apart from limits set by blood flow. By Kp is commonly meant the ratio of the level in a tissue or fluid to that in plasma or blood.

These data come from patent US11780851B2, “LRRK2 inhibitors” (H. Lundbeck A/S, priority 2021, dated 2023).
